Converted amounts (≈) assume the structure as drawn. “Also recorded” adds a separate entry of the source.
Assays:
[1] = cited from earlier work; for transdermal delivery into and across human skin: literature, primaquine: simple transdermal patch, full-thickness excised human skin
[2] = relative to base line; cited from earlier work
[3] = blood level; cited from earlier work
[4] = Stability of primaquine after exposure to iontophoresis by TLC of receptor compartment; conditions: receptor compartment contents, silica gel, n-butanol:acetic acid:water (5:3:2)
[5] = In-vitro transdermal iontophoretic delivery of primaquine patch through epidermal membranes in Mattek permeation device
plasma cholinesterase = target: T1, plasma cholinesterase (Homo sapiens, UniProt P06276); test: Selective inhibition of cholinesterase activity in plasma samples treated with quinidine; assay type: biochemical; conditions: quinidine 20 μM, BTC vs other substrate
T1 construct: plasma samples that were treated with quinidine (20 μM); from tissue; host or cells: plasma
T1 sequence (P06276 29-602): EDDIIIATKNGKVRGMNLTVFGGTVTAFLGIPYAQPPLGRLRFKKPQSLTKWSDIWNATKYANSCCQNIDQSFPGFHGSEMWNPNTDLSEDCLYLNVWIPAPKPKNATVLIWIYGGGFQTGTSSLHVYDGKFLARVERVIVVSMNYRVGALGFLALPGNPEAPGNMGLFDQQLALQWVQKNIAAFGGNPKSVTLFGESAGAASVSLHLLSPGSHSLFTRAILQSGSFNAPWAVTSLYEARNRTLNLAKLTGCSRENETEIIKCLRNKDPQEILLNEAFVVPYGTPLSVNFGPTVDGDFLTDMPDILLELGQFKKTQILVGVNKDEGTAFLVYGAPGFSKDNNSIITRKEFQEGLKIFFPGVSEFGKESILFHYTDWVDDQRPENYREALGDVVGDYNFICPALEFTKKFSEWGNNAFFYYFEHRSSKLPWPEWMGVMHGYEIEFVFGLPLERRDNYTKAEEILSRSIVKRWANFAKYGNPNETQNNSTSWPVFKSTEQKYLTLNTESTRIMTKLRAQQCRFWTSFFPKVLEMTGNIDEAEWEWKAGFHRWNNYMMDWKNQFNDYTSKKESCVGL

Question: For `C[C@H]1c2cccc(O)c2C(=O)C2=C(O)[C@]3(O)C(=O)C(C(N)=O)=C(O)[C@@H](N(C)C)[C@@H]3[C@@H](O)[C@@H]21` [doxycycline], which “transdermal delivery into and across human skin” value [1] is on record?
Answer: The value was “significant amounts”.

Question: For `CC1CCC(C(C)C)C(O)C1` (centres unmarked) [menthol], which “increase in skin flux” value [2] is on record?
Answer: Its value is “up to eight times the base line”.

Question: For `CN1CCCC1c1cccnc1` (centres unmarked) [nicotine], which solubility (physchem) is on record?
Answer: The solubility was 50 mg/mL (≈ 308 mM).

Question: Which “transdermal delivery into and across human skin” value [1] does the source give for `COc1cc(NC(C)CCCN)c2ncccc2c1` (centres unmarked) [primaquine] here?
Answer: The value was “could deliver a therapeutic in vivo dose”.

Question: What about the “share of the 10 mg dose delivered passively each hour” value ([1]; passive delivery, per hour) of the same compound?
Answer: The value was “Approximately 5%”.

Question: And the “amount that can be delivered transdermally” value ([1]; within 24 hours, to achieve therapeutic plasma concentrations)?
Answer: Its value is 10 mg.

Question: What about the “therapeutic dosage (level) for the treatment of malaria” value [3] of the same compound?
Answer: The value was 0.03 µg/mL.

Question: What about the “stability of the primaquine molecule after exposure to iontophoresis (TLC)” value [4] of the same compound?
Answer: The value was “intact primaquine is present; also recorded: there is more than one species of molecule present”.

Question: What about the “passive diffusion before and after iontophoresis” value ([5]; human epidermal membrane, no current, receptor PBS pH 7.4) of the same compound?
Answer: The value was “Minimal passive diffusion”.

Question: What about the “amount delivered using electrotransport” value ([5]; in 40 minutes) of the same compound?
Answer: Its value is 160 µg.

Question: With `C=C[C@H]1C[N@@]2CC[C@H]1C[C@@H]2[C@@H](O)c1ccnc2ccc(OC)cc12` [quinidine] as the compound, how does the “inhibitory effect on plasma cholinesterase activity” value (plasma cholinesterase) read?
Answer: Its value is “the inhibitory effect was observed only when BTC was used”.
